# In US8026367B2, “(R)-arylalkylamino derivatives and pharmaceutical compositions containing them” (Dompe PHA.R.MA S.p.A., priority 2005, dated 2011):
# Counter-ions that a name gives are not always drawn.
# Test system: C5a induced PMN migration
# Experiment: Inhibition of C5a induced chemotaxis of human PMNs (microchamber assay)
# Assay type: cell-based
# Details: compound concentration range between 10^−7 and 10^−8 M, C5a 10^−9 M, 60 min at 37° C.
# Protocol: The compounds of the invention of formula (I) were evaluated in vitro for their ability to inhibit chemotaxis of polymorphonucleate leukocytes (hereinafter referred to as PMNs) and monocytes induced by the fractions of the complement C5a and C5a-desArg. For this purpose, to isolate the PMNs from heparinized human blood, taken from healthy adult volunteers, mononucleates were removed by means of sedimentation on dextran (according to the procedure disclosed by W. J. Ming et al., J. Immunol., 138, 1469, 1987) and red blood cells by a hypotonic solution. The cell vitality was calculated by exclusion with Trypan blue, whilst the ratio of the circulating polymorphonucleates was estimated on the cytocentrifugate after staining with Diff Quick.
# Human recombinant fractions C5a and C5a-desArg (Sigma) were used as stimulating agents in the chemotaxis experiments, giving practically identical results.
# The lyophilized C5a was dissolved in a volume of HBSS containing 0.2% bovin serum albumin BSA so thus to obtain a stock solution having a concentration of 10^−5 M to be diluted in HBSS to a concentration of 10^−9 M, for the chemotaxis assays.
# In the chemotaxis experiments, the PMNs were incubated with the compounds of the invention of formula (I) for 15′ at 37° C. in an atmosphere containing 5% CO2.
# The chemotactic activity of the C5a was evaluated on human circulating polymorphonucleates (PMNs) resuspended in HBSS at a concentration of 1.5×10^6 PMNs per mL.
# During the chemotaxis assay (according to W. Falket et al., J. Immunol. Methods, 33, 239, 1980) PVP-free filters with a porosity of 5 μm and microchambers suitable for replication were used.
# The compounds of the invention in formula (I) were evaluated at a concentration ranging between 10^−7 and 10^−10 M; for this purpose they were added, at the same concentration, both to the lower pores and the upper pores of the microchamber. The wells in the lower part contain the solution of C5a or the simple carrier, those in the upper part contain the suspension of PMNs.
# Inhibition of C5a-induced chemotactic activity by the individual compounds of the invention of formula (I) was evaluated by incubating the microchamber for the chemotaxis for 60 min at 37° C. in an atmosphere containing 5% CO2.
# By way of example, the inhibition data of the chemotaxis of PMN (concentration range between 10^−7 and 10^−8 M) of some representative compounds of the invention are reported in Table 1.
row,SMILES,% inhibition C5a induced PMN migration
1,C[C@@H](Nc1nc(C(F)(F)F)cs1)c1cccc(C(=O)c2ccccc2)c1 [Compound 21],42 ± 5%
2,"C[C@@H](NS(=O)(=O)c1cccs1)c1ccc(OS(=O)(=O)C(F)(F)F)cc1 [Compound 7, 4-{(1R)-1-[(thien-2-ylsulfonyl)amino]ethyl}phenyl trifluoromethanesulfonate]",41 ± 8%
3,"C[C@@H](NS(C)(=O)=O)c1cccc(C(=O)c2ccccc2)c1 [Compound 4, N-[(1R)-1-(3-benzoylphenyl)ethyl]methanesulfonamide]",48 ± 8%
4,"C[C@@H](NS(C)(=O)=O)c1cccc(C(=O)c2ccco2)c1 [Compound 6, N-[(1R)-1-[3-(2-furoyl)phenyl]ethyl}methanesulfonamide]",52 ± 7%
5,"C[C@@H](NC(=O)CCCN1CCCC1)c1ccc(OS(=O)(=O)C(F)(F)F)cc1 [Compound 20, 4-{(1R)-1-[(4-pyrrolidin-1-ylbutanoyl)amino]ethyl]}phenyl trifluoromethanesulfonate]",47 ± 1%
6,"CC(C)[C@@H](NS(C)(=O)=O)c1ccc(OS(=O)(=O)C(F)(F)F)cc1 [Compound 12, 4-{(1R)-2-methyl-1-[(methylsulfonyl)amino]propyl}phenyl trifluoromethanesulfonate]",40 ± 5%
7,"C[C@@H](NC(=O)C1CCC1)c1cccc(C(=O)c2ccccc2)c1 [Compound 18, N-[(1R)-1-(3-benzoylphenyl)ethyl]cyclobutanecarboxamide]",57 ± 4%
8,"C[C@@H](NS(=O)(=O)c1cccnc1)c1ccc(OS(=O)(=O)C(F)(F)F)cc1 [Compound 3, 4-{(1R)-1-[(pyridine-3-ylsulfonyl)amino]ethyl}phenyl trifluoromethanesulfonate]",47 ± 7%
9,"CC(C)C(=O)N[C@H](C)c1ccc(OS(=O)(=O)C(F)(F)F)cc1 [Compound 14, 4-[(1R)-1-(isobutyrylamino)ethyl]phenyl trifluoromethanesulfonate]",60 ± 8%
10,"C[C@@H](NC(=O)c1cccnc1)c1ccc(OS(=O)(=O)C(F)(F)F)cc1 [Compound 15, 4-{[(1R)-1-(pyridine-3-ylcarbonyl)amino]ethyl]}phenyl trifluoromethanesulfonate]",46 ± 6%
11,"C[C@@H](NC(=O)c1ccccc1)c1cccc(C(=O)c2ccccc2)c1 [Compound 16, N-[(1R)-1-(3-benzoylphenyl)ethyl]benzamide]",49 ± 5 %
12,"C[C@@H](NS(=O)(=O)c1ccc(C(=O)O)o1)c1cccc(C(=O)c2ccccc2)c1 [Compound 11, 5-({[(1R)-1-(3-benzoylphenyl)ethyl]amino}sulfonyl)-2-furoic acid]",40 ± 4%
13,"C[C@@H](NS(=O)(=O)c1cccs1)c1cccc(C(=O)c2ccco2)c1 [Compound 5, N-[(1R)-1-[3-(2-furoyl)phenyl]ethyl}thiophene-2-sulfonamide]",60 ± 8%
14,"C[C@@H](NS(C)(=O)=O)c1ccc(C(C)(C)S(=O)(=O)c2ccccc2)cc1 [Compound 13, N-((1R)-1-{4-[1-methyl-1-(phenylsulfonyl)ethyl]phenyl}ethyl)methanesulfonamide]",64 ± 8%
15,"C[C@@H](NS(=O)(=O)c1ccccc1)c1cccc(C(=O)c2ccccc2)c1 [Compound 2, N-[(1R)-1-(3-benzoylphenyl)ethyl]benzenesulfonamide]",59 ± 10%
16,"C[C@@H](NS(=O)(=O)c1cccs1)c1cccc(C(=O)c2ccccc2)c1 [Compound 8, N-[(1R)-1-(3-benzoylphenyl]ethyl}thiophene-2-sulfonamide]",55 ± 14%
17,"COC(=O)c1ccc(S(=O)(=O)N[C@H](C)c2cccc(C(=O)c3ccccc3)c2)o1 [Compound 10, methyl 5-({[(1R)-1-(3-benzoylphenyl)ethyl]amino}sulfonyl)-2-furoate]",72 ± 6%
18,"C[C@@H](NC(=O)CCCN1CCCCC1)c1ccc(OS(=O)(=O)C(F)(F)F)cc1 [Compound 19, N-[(1R)-1-(4-trifluoromethanesulfonyloxy)phenylethyl]-4-piperidin-1-ylbutanamide]",54 ± 17%
19,"C[C@@H](NC(=O)c1ccco1)c1cccc(C(=O)c2ccccc2)c1 [Compound 17, N-[(1R)-1-(3-benzoylphenyl)ethyl]-2-furamide]",63 ± 10%
20,"C[C@@H](NS(=O)(=O)c1ccccc1)c1ccc(OS(=O)(=O)C(F)(F)F)cc1 [Compound 1, 4-{(1R)-1-[(phenylsulfonyl)amino]ethyl}phenyl trifluoromethanesulfonate]",50 ± 1 %

# Test system: not given
# Experiment: not given
# Details: not given
row,SMILES,melting point
1,"C[C@@H](NC(=O)c1cccnc1)c1ccc(OS(=O)(=O)C(F)(F)F)cc1 (as salt: methanesulfonate) [Compound 15, 4-{[(1R)-1-(pyridine-3-ylcarbonyl)amino]ethyl]}phenyl trifluoromethanesulfonate]",120 to 122 °C
2,"C[C@@H](NC(=O)C1CCC1)c1cccc(C(=O)c2ccccc2)c1 [Compound 18, N-[(1R)-1-(3-benzoylphenyl)ethyl]cyclobutanecarboxamide]",90 to 93 °C
3,"C[C@@H](NS(=O)(=O)c1cccs1)c1cccc(C(=O)c2ccco2)c1 [Compound 5, N-[(1R)-1-[3-(2-furoyl)phenyl]ethyl}thiophene-2-sulfonamide]",105 to 106 °C
